Data taken from patent US20240392302A1, “METHOD FOR DETECTING AND QUANTIFYING RNA” (FLUORESCENCE DIAGNOSIS (SHANGHAI) BIOTECH COMPANY LTD., priority 2021, published 2024).

How the values were obtained:
[1] = test system: BL21 (DE3, Star) Escherichia coli strain expressing F30-N16-1; experiment: Labeling of RNA in bacteria by F30-N16-1-I-5-14 complex; format: cell-based; conditions: F30-N16-1 induced with 1 mM IPTG 4 h; PBS with 2 μM I-5-14
Source text: In order to detect the effect of F30-N16-1-I-5-14 in bacteria, a bacterial expression plasmid expressing F30-N16-1 (SEQ ID NO: 2) was constructed first. F30-N16-1 in Example 2 was amplified with primers, pET28a was amplified with primers so as to remove the promoter and polyclonal site region, and then the F30-N16-1 DNA fragment obtained by means of amplification was connected to pET28a linearized vector by using the experimental method (III), and the obtained recombinant plasmid was named as pET28a-T7-F30-N16-1.
BL21 (DE3, Star) Escherichia coli strain was transformed with recombinant plasmid pET28a-T7-F30-N16-1, and monoclone was picked and cultured at 37° C.; when OD600 is about 0.2, 1 mM of IPTG was added to induce the expression of F30-N16-1, and bacteria were collected 4 h later; resuspension was performed with a PBS solution containing 2 μM of I-5-14. BL21 (DE3, Star) Escherichia coli with transformed pET28a empty vector served as control.

[2] = Spectral properties (excitation, emission, light absorption) of N16-1-I-5-14 complex; format: physicochemical; conditions: 2 μM I-5-14 with 10 μM N16-1, or 5 μM pure I-5-14
Description: In order to detect the spectral properties of N16-1-I-5-14 complex, N16-1 (SEQ ID NO: 1) RNA was prepared by using the commonly-used experimental method (I). 1 μM of I-5-14 was incubated with 5 μM of N16-1. According to the results, the maximum excitation light of N16-1-I-5-14 complex was 512 nm, and the maximum emission light thereof was 574 nm (FIG. 3B).
In order to detect the difference between the light absorption of N16-1-I-5-14 complex and that of I-5-14 fluorophore molecules per se, 2 μM of I-5-14 incubated with 10 μM of N16-1, or 5 μM of pure I-5-14 was used for detecting the light absorption of I-5-14 and that of N16-1-I-5-14 complex respectively.

[3] = test system: 293T/17 cells expressing F30-N16-1; experiment: Labeling of RNA in mammalian cells by F30-N16-1 and I-5-14; format: cell-based; conditions: 1 μm of I-5-14 added 36 h after transfection
Description: Main imaging experiments in the examples were carried out by using a confocal laser microscope Leica SP8 equipped with white laser, and an HCXPL APO 63×1.47 oil mirror and a HyD detector were used.
In order to detect labeling of RNA in mammalian cells by using F30-N16-1 and I-5-14, a mammalian cell expression plasmid expressing F30-N16-1 (SEQ ID NO: 2) was constructed. F30-N16-1 in Example 9 was amplified with primers P1, P2, and P3, respectively.
These fragments were inserted into pLKO.1 puro vector by using the experimental method (III), an expression vector obtained thereby was named as pLKO.1-F30-N16-1, and the plasmid expressed F30-N16-1.
293T/17 cells were transfected with pLKO.1-F30-N16-1 plasmid, […] of I-5-14 was added 36 h later so as to label F30-N16-1, cells not expressing the corresponding aptamer served as control, and the labeling effect was detected by using experimental method (V).

[4] = Function detection of the nucleic acid aptamer: fluorescence activation of I-5-14 by N16-1, its mutants and base-modified forms; format: biochemical; conditions: for Activation Multiple: 0.5 μM I-5-14 with 2.5 μM RNA; for fluorescence activation effect of base-modified N16-1 for I-5-14: base-modified aptamers
Description: A primer containing T7 promoter was used for amplification of corresponding cDNA of RNA to be detected, and T7 RNA polymerase (purchased from Fermentas) was used for obtaining RNA by means of transcription with recovered double-stranded cDNA as a template. 10 μL of 3 M NaAc and 115 μL of DEPC water were added into 20 μL of transcription system, and were mixed well before 150 μL of phenol chloroform-[…] mixture (phenol:chloroform:[…]=25:24:1) was added; then the mixture was mixed well by means of oscillation, and the supernatant was taken after centrifugation at 10,000 rpm for 5 min. An equal volume of chloroform solution was added and was mix well by means of oscillation, and then the supernatant was taken after centrifugation at 10,000 rpm for 5 min; the process was repeated once. 2.5 times the volume of anhydrous ethanol was added into the supernatant, and the mixture was placed in a refrigerator at −20° C. for 30 min and was subject to centrifugation at 12,000 rpm at 4° C. for 5 min; then the supernatant was removed, and the precipitation was cleaned twice with 75% pre-cooled anhydrous ethanol. After volatilization of the ethanol, the precipitation was re-suspended with an appropriate amount of screening buffer, and then was treated at 75° C. for 5 min and was placed at room temperature for more than 10 min for subsequent experiments.
(§1) Nucleic acid aptamer molecules of N16 or N16 mutants were prepared by using the commonly-used experimental method (I), 2.5 μM of nucleic acid aptamer molecules and 0.5 μM of fluorophore molecules were incubated in a detection buffer (40 mM of HEPES, pH 7.4, 125 mM of KCl, 5 mM of MgCl2, 5% DMSO), and the maximum excitation peak and the maximum emission peak of the fluorescence of the nucleic acid aptamer-fluorophore molecular complex were detected with Synergy Neo2 multifunctional enzyme-labeler. Synergy Neo2 multifunctional enzyme-labeler was used again to detect fluorescence intensity of the nucleic acid aptamer-fluorophore molecular complex under its maximum excitation and emission conditions, the control sample ([…] of fluorophore molecules without nucleic acid aptamer) was also measured under the same conditions, and the ratio of fluorescence intensity was calculated. For example, as for fluorescence of the complex formed by 2.5 μM of N16-1 nucleic acid aptamer and 0.5 μM of I-5-14 fluorophore molecules, the maximum excitation peak is 512 nm and the maximum emission peak is 574 nm. It was detected by the Synergy Neo2 multifunctional enzyme-labeler that the fluorescence intensity of the complex at an excitation condition of 512±10 nm and an emission condition of 574 nm±10 nm was 49,088, while the fluorescence intensity of the control (0.5 μM of I-5-14 fluorophore molecules) under the same detection conditions was 399, so the activation multiple of N16-1 nucleic acid aptamer to I-5-14 fluorophore molecules was 123.
According to the results, most N16-1 mutants with a single base mutation retained a relatively strong fluorescence activation effect (no smaller than 2 times) on I-5-14 (Table 2). Some N16-1 mutants with 2 to 5 base mutations still retained a relatively strong fluorescence activation effect (greater than 20 times) for I-5-14 (Table 3). In a word, many single-base and multi-base mutants of N16-1 might still retain the aptamer function of activating the 1-5-14 fluorophore molecules.

[5] = test system: F30-N16-1 RNA aptamer molecules; experiment: Binding of F30-N16-1 RNA aptamer molecules with different fluorescent molecules (fluorescence spectrum, activation multiple); format: biochemical; conditions: for Maximum emission peak (nm) / Maximum excitation peak (nm): complex with F30-N16-1; for Activation Multiple: fluorophore with F30-N16-1
Description: as §1
F30-N16-1 RNA aptamer molecules were prepared by using the commonly-used experimental method (I), and were used for detecting basic properties, including fluorescence spectrum and fluorescence activation multiple, of the binding of I-5-14 analogues with N16.

[6] = Binding constant of N16-1 and I-5-14; conditions: 10 nM N16-1 with I-5-14 of different concentrations
Description: In order to detect the binding constant of N16-1 and I-5-14, 10 nM of N16-1 was incubated with I-5-14 of different concentrations, so that fluorescence values thereof could be detected. According to the results, the binding constant of N16-1 and I-5-14 was 15.69 nM (FIG. 3D).

[7] = complex of 2.5 μM N16-1 and 0.5 μM I-5-14

Molecule	Maximum emission peak (nm) [5]	Maximum excitation peak (nm) [5]	Activation Multiple [5]	other results
CN(CCO)c1ccc(/C=C2\SC(=S)NC2=O)cc1 [I-5-14]	574 nm	513 nm	123	fluorescence of bacteria [1]: bright yellow fluorescence; maximum light absorption [2]: 477 nm; labeling effect (fluorescence imaging) [3]: very bright yellow fluorescence; fluorescence intensity of the control ([4]; 0.5 μM I-5-14 without nucleic acid aptamer, same detection conditions): 399
CN(CCO)c1ccc2c(c1)C(C)(C)c1cc(/C=C3\NC(=S)NC3=O)ccc1-2 [I-5-76]	774 nm	724 nm	9	
CN(CCO)c1ccc2c(c1)C(C)(C)c1cc(/C=C3\NC(=S)NC3=O)sc1-2 [I-5-77]	783 nm	736 nm	5	
CN(CCO)c1ccc2c(c1)C(C)(C)c1cc(/C=C3\SC(=S)NC3=S)sc1-2 [I-5-78]	681 nm	582 nm	8	
N16-1: nucleic acid aptamer with a sequence SEQ ID NO: 1 (GGGCNCCAGGNGCNGCNNCGGCAGGNAACGGACNNAGANCCACNGNACGCCC; RNA, backbone and the base at N not given here)				fluorescence intensity of the complex ([4]; 2.5 μM N16-1, 0.5 μM I-5-14, excitation 512±10 nm, emission 574 nm±10 nm): 49,088; activation multiple of N16-1 nucleic acid aptamer to I-5-14 fluorophore molecules ([4]; 2.5 μM N16-1, 0.5 μM I-5-14, excitation 512±10 nm, emission 574±10 nm): 123; Activation Multiple ([4]; N16-1 mutants containing a single base mutation): 123; Activation Multiple ([4]; N16-1 mutants containing multi-base mutation): 123; maximum emission peak [4, 7]: 574 nm; maximum excitation peak [4, 7]: 512 nm; Kd [6]: 15.7 nM
N16-2: base-modified N16-1, SEQ ID NO: 4, stem-loop structure bases replaced with deoxyribonucleotides (GGGCNCCAGGNGCNGCNNCGGCAGGNAACGGACNNAGANCCACNGNACGCCC; some stem-loop nucleotides deoxyribonucleotides, positions not given here)				fluorescence activation effect of base-modified N16-1 for I-5-14 [4]: significantly activate
N16-3: base-modified N16-1, SEQ ID NO: 5, some of the bases modified by 2′-F (GGGCNCCAGGNGCNGCNNCGGCAGGNAACGGACNNAGANCCACNGNACGCCC; some nucleotides 2'-fluoro modified, positions not given here)				fluorescence activation effect of base-modified N16-1 for I-5-14 [4]: significantly activate

Further lines, with some results ahead:

Maximum emission peak (nm) [5]	Maximum excitation peak (nm) [5]	Activation Multiple [5]	Molecule	other results
733 nm	682 nm	11	CN(CCO)c1ccc2c(c1)C(C)(C)c1cc(/C=C3\SC(=S)NC3=O)sc1-2 [I-5-79]	
743 nm	686 nm	7	CN1C(=O)/C(=C/c2cc3c(s2)-c2ccc(N(CCO)CCO)cc2C3(C)C)SC1=S [I-5-80]	
713 nm	635 nm	7	CN(CCO)c1cc2c(s1)-c1sc(/C=C3\NC(=S)N(N)C3=O)cc1C2(C)C [I-5-81]	
801 nm	748 nm	3	CN(CCO)c1cc2c(s1)-c1sc(/C=C3\SC(=S)NC3=S)cc1C2(C)C [I-5-82]	
733 nm	685 nm	4	CN(CCO)c1cc2c(s1)-c1sc(/C=C3\SC(=S)NC3=O)cc1C2(C)C [I-5-83]	
737 nm	685 nm	6	CN1C(=O)/C(=C/c2cc3c(s2)-c2sc(N(CCO)CCO)cc2C3(C)C)SC1=S [I-5-84]	
